Reference: PMC7438329 (Scientific Reports, 2020)
Where a name gives a salt, the structure may show the parent alone. Read-outs that look alike come from different tables or passages of the source.

Experiments:
[1] = test system: zebrafish embryos; type: in vivo, zebrafish (Danio rerio)
[2] = target: T1, hGlyR α1 + hGlyRβb (Homo sapiens, UniProt P23415+P48167); assay: two-electrode voltage-clamp of Xenopus oocytes expressing heteromeric human α1β GlyR; type: cell-based
T1 construct: Full-length cDNAs encoding zebrafish GlyR α1 and βb and human GlyR α1 and β subunits were used in this study; expressed in transfected cells; host or cells: Xenopus laevis oocytes injected with cRNA
T1 sequence (P48167 23-497, one chain of several): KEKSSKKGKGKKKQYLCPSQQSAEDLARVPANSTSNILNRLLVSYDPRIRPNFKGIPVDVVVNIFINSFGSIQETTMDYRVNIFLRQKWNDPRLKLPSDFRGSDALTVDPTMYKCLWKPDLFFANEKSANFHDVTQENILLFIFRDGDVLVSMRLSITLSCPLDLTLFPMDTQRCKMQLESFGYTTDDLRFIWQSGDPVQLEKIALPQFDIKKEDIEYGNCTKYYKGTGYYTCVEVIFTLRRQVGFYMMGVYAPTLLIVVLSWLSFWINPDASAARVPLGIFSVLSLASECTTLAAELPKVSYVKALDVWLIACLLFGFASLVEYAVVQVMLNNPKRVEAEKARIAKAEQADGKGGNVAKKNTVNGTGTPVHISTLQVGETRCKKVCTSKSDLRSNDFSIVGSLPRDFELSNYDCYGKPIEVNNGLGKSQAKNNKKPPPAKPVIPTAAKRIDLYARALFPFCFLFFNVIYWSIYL
Protocol: (§1) To assess the drug sensitivity of GlyRs, we employed electrophysiology using Xenopus oocytes.
(§2) We also investigated whether niflumic acid blocks human GlyRs.
(§3) Full-length cDNAs encoding zebrafish GlyR α1 and βb and human GlyR α1 and β subunits were used in this study. Capped cRNAs for expression in Xenopus laevis oocytes were synthesized from linearized templates using SP6 mMessage mMachine SP6 transcription kit (Thermo Fisher Scientific) as described previously. Oocytes were injected with five femtomoles of cRNA using a Nanoject II (Drummond Scientific). Oocytes were moved to 48-well plates in Barth’s solution (88 mM NaCl, 1 mM KCl, 2.4 mM NaHCO3, 0.33 mM Ca (NO3)2, 0.41 mM CaCl2, 0.82 mM MgSO4, 10 mM HEPES at pH 7.5 with NaOH, supplemented with 50 µg/ml gentamicin and 100 units/ml penicillin/streptomycin) and incubated at 18 °C for 24–48 h prior to recording. Oocyte recording solution (90 mM NaCl, 1 mM KCl, 2 mM CaCl2, 1 mM MgCl2, 10 mM HEPES at pH 7.5 with NaOH) and drug solutions of seven different concentrations were flew into the oocyte chamber using a BPS-8 solution switcher (ALA Scientific). Borosilicate electrodes had resistances of ~ 2.0 MΩ when filed with 3 M KCl. […] Signals were low-pass filtered at 10 Hz, and sampled at 100 Hz. […] Statistical significance was assessed using the pair-wise analysis of variance.

[3] = target: T2, zGlyR α1 (Danio rerio, UniProt O93430); assay: two-electrode voltage-clamp of Xenopus oocytes expressing homomeric zebrafish α1 GlyR; type: cell-based
T2 construct: Full-length cDNAs encoding zebrafish GlyR α1 and βb and human GlyR α1 and β subunits were used in this study; expressed in transfected cells; host or cells: Xenopus laevis oocytes injected with cRNA
T2 sequence (O93430 25-444): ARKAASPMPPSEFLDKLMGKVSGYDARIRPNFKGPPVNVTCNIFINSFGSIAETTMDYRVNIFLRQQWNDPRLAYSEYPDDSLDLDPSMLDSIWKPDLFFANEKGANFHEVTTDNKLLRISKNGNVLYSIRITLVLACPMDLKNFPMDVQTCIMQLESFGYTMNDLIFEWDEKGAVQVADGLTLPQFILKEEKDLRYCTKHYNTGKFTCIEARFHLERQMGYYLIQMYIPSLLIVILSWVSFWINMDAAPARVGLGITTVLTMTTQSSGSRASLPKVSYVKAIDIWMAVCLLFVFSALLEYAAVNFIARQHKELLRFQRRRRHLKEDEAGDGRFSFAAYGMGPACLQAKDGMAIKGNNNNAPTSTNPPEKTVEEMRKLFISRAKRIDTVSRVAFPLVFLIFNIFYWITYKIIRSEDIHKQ
Protocol: as §1, §3

[4] = target: T3, hGlyR α1 (Homo sapiens, UniProt P23415); assay: two-electrode voltage-clamp of Xenopus oocytes expressing homomeric human α1 GlyR; type: cell-based
T3 construct: Full-length cDNAs encoding zebrafish GlyR α1 and βb and human GlyR α1 and β subunits were used in this study; expressed in transfected cells; host or cells: Xenopus laevis oocytes injected with cRNA
T3 sequence (P23415 29-457): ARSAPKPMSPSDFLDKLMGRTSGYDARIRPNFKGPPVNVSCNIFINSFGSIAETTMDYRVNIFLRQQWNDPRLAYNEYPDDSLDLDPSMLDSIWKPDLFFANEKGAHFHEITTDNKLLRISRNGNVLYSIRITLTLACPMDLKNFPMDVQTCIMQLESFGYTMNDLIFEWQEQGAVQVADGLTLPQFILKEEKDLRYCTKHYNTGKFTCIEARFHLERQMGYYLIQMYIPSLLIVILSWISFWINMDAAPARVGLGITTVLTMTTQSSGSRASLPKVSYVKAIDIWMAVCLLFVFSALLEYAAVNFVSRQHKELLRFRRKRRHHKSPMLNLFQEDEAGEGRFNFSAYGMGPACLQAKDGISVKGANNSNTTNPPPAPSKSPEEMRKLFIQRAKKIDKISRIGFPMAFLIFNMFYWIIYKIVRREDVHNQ
Protocol: as §1, §2, §3

[5] = test system: zebrafish embryos; assay: video recording of zebrafish touch response at 48 hpf in the presence of drug; type: in vivo, zebrafish (Danio rerio); details: for tactile response of zebrafish embryos at 48 hpf: bath application 30 min: 70 μM strychnine, 5 mM picrotoxin, 200 μM nifedipine, 500 μM niflumic acid; for drug concentration efficient for inducing abnormal touch response: zebrafish embryos 48 hpf, bath application
Description: Tactile-evoked zebrafish movements in the presence of control 1% DMSO or drug were video recorded at 48 hpf using a dissection microscope. Touch responses elicited by tactile stimulation delivered to the tail with forceps were captured with a high-speed CCD camera at 200 frames per second (HAS-220, Ditect) as described previously.

[6] = test system: zebrafish embryos; type: in vivo, zebrafish (Danio rerio); remark: listed apart in the source
Protocol: To this end, three zebrafish embryos were treated with a drug (10 ~ 100 μM) in a well of 96-well plate at the onset of 24 hpf and then assayed for touch responses at 27 and 48 hpf, when zebrafish embryos show tactile-induced short-distance forward movement and escape swimming, respectively.
Two chemical libraries from Kyoto University and Nagoya University, composed of total ~ 1,000 bioactive compounds, were used in this study. The 2 µl of chemical compounds (1 ~ 10 mM) dissolved in DMSO were diluted to 200 µl with E3 medium (5 mM NaCl, 0.17 mM KCl, 0.33 mM CaCl2, 0.33 mM MgSO4) and transferred to 96-well plate. Three zebrafish embryos (24 hpf) were transferred into each well of the plate and incubated in a 28.5 °C incubator. At 27 hpf, three embryos with a small amount of drug solution were transferred to a 90-mm dish containing 15 ml of E3 medium and subjected to touch response using forceps under a dissection microscope Leica MZ16. After this assay, embryos with a small amount of E3 solution were transferred back to the drug solution in 96-well plate and incubated in the 28.5 °C incubator. At 48 hpf, embryos were transferred to a 90-mm dish containing 15 ml of E3 medium again and subjected to the touch response.

[7] = target: T4, zebrafish GlyRs (Danio rerio, UniProt O93430); assay: cell-based; type: cell-based; details: rounded value in discussion; read-out: IC50 values of GlyRs expressed in Xenopus oocytes
T4 sequence (O93430 25-444): T2 sequence (O93430 25-444)
Protocol: as §3

[8] = target: zGlyR α1 + zGlyRβb (Danio rerio, UniProt O93430+Q6DC22); assay: two-electrode voltage-clamp of Xenopus oocytes expressing heteromeric zebrafish α1βb GlyR; type: cell-based
zGlyR α1 + zGlyRβb, sequence (Q6DC22 entry or part of it, one chain of several): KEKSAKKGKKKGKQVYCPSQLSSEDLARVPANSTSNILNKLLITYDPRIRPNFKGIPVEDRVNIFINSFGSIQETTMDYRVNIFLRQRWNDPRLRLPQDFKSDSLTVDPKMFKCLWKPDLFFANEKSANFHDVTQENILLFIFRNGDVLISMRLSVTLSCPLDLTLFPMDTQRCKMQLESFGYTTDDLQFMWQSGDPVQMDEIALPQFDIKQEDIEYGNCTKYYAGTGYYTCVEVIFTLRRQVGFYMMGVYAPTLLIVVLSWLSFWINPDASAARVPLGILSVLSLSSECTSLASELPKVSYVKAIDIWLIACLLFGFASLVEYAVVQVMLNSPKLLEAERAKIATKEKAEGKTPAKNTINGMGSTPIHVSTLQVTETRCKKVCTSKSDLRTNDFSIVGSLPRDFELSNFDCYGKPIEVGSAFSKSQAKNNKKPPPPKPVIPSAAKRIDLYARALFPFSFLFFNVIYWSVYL
Protocol: as §1, §3

[9] = statement in discussion, no reference given; cited from earlier work
[10] = test system: homomeric α GlyRs; details: mammals; cited from earlier work
[11] = test system: heteromeric αβ GlyRs; details: mammals; cited from earlier work
[12] = purchased drugs, several different concentrations
[13] = drug 10 ~ 100 μM, 1% DMSO, from 24 hpf, touch responses at 27 and 48 hpf
[14] = with 200 μM glycine, mean ± SEM, 10 oocytes
[15] = read-out: IC50 of inhibition of glycine current, with 200 μM glycine, mean ± SEM, 10 oocytes

For `O=C1C[C@@H]2OCC=C3CN4CC[C@]56c7ccccc7N1[C@H]5[C@H]2[C@H]3C[C@H]46` [Strychnine], the “Response 2nd screening” value [1, 12] was “Body shrinkage”, the “Hill coeff of drug-mediated inhibition” value [2] was 0.8 ± 0.1 and the IC50 [2] was 0.092 ± 0.019 µM. The “Hill coeff of drug-mediated inhibition” value [3] was 0.7 ± 0.2, the “Hill coeff of drug-mediated inhibition” value [4] was 1.0 ± 0.1 and the IC50 [4] was 0.072 ± 0.012 µM. For the same compound, the “tactile response of zebrafish embryos at 48 hpf” value (from here on “tactile response”) [5] was “bilateral trunk contractions resulting in the shrinkage of the body” and the “Response 1st screening” value [6, 13] was “Body shrinkage”.
In the case of `O=c1oc2ccccc2c(O)c1Cc1c(O)c2ccccc2oc1=O` [Dicumarol], the “Response 2nd screening” value [1, 12] is reported as “Normal” and the “Response 1st screening” value [6, 13] is reported as “Weird contraction”.
In the case of `COc1ccc(Cc2nccc3cc(OC)c(OC)cc23)cc1OC` [Papaverine hydrochloride], the “Response 2nd screening” value [1, 12] is reported as “Normal” and the “Response 1st screening” value [6, 13] is reported as “Weird contraction”.
For `Cc1cccc(Nc2ccccc2C(=O)O)c1C` [Mefenamic acid], the “Response 2nd screening” value [1, 12] was “Normal” and the “Response 1st screening” value [6, 13] was “Body shrinkage”.
For `CC(N)CCCC(C)(C)O` (stereo not shown) [Heptaminol hydrochloride], the “Response 2nd screening” value [1, 12] was “Normal” and the “Response 1st screening” value [6, 13] was “Body shrinkage”.
In the case of `CCCCCC[C@H]1C(=O)O[C@H](C)[C@H](NC(=O)c2cccc(NC=O)c2O)C(=O)O[C@@H](C)[C@@H]1OC(=O)CC(C)C` [Antimycin A], the “Response 2nd screening” value [1, 12] is reported as “Normal” and the “Response 1st screening” value [6, 13] is reported as “Weird contraction”.
With `Cl.Cl.c1ccc2c3c([nH]c2c1)C1C2CCC(C4CCCNC42)N1CC3` (stereo not shown) [Nitrarine dihydrochloride] the “Response 2nd screening” value [1, 12] was “Normal” and the “Response 1st screening” value [6, 13] was “Weird contraction”.
In the case of `O=C(O)c1cccnc1Nc1cccc(C(F)(F)F)c1` [Niflumic acid], the “Response 2nd screening” value [1, 12] is reported as “Body shrinkage”, the IC50 [2] is reported as 930 ± 111 µM and the “Hill coeff of drug-mediated inhibition” value [2, 14] is reported as 1.1 ± 0.1. The IC50 [7] was 400 µM, the IC50 [3] was 801 ± 91 µM and the “Hill coeff of drug-mediated inhibition” value [3, 14] was 0.5 ± 0.1. The IC50 [4] was 1070 µM, the “Hill coeff of drug-mediated inhibition” value [4, 14] was 1.1 ± 0.2 and the “tactile response” value [5] was “touch-evoked shrinkage of the body”. For the same compound, the “drug concentration efficient for inducing abnormal touch response” value [5] was 500 µM, the IC50 [8] was 426 µM and the “Hill coeff of drug-mediated inhibition” value [8, 14] was 0.9 ± 0.1. For the same compound, the solubility in water [9] was “insoluble to water” and the “Response 1st screening” value [6, 13] was “Weird contraction”.
In the case of `COC(=O)C1=C(C)NC(C)=C(C(=O)OC)C1c1ccccc1[N+](=O)[O-]` [Nifedipine], the “Response 2nd screening” value ([1]; zebrafish, in vivo) is reported as “Body shrinkage”, the IC50 [2] is reported as 130 ± 27 µM and the “Hill coeff of drug-mediated inhibition” value [2, 14] is reported as 0.9 ± 0.2. For the same compound, the IC50 [7] was 200 µM, the IC50 [3] was 239 ± 38 µM and the “Hill coeff of drug-mediated inhibition” value [3, 14] was 0.5 ± 0.1. For the same compound, the IC50 [4] was 171 ± 30 µM, the “Hill coeff of drug-mediated inhibition” value [4, 14] was 1.1 ± 0.2 and the “Hill coeff of drug-mediated inhibition” value [8] was 0.4 ± 0.0. For the same compound, the IC50 [8] was 162 ± 24 µM and the “Response 1st screening” value ([6]; zebrafish, in vivo) was “Body shrinkage”.
In the case of Picrotoxin, the IC50 [2, 15] is reported as 94 µM, the “Hill coeff of drug-mediated inhibition” value [2, 14] is reported as “**0.5 ± 0.1” and the IC50 [7] is reported as 6 µM. For the same compound, the IC50 [3, 15] was 6.1 ± 0.3 µM, the “Hill coeff of drug-mediated inhibition” value [3, 14] was 1.2 ± 0.1 and the IC50 [4, 15] was 7.2 ± 0.9 µM. For the same compound, the “Hill coeff of drug-mediated inhibition” value [4, 14] was 0.9 ± 0.1, the “concentration of picrotoxin that blocks homomeric α GlyRs” value [10] was ~ 10 μM and the “picrotoxin necessary to block heteromeric αβ GlyRs compared with homomeric α GlyRs” value [11] was “ten folds more”. The “tactile response” value [5] was “shrinkage of the body”, the “drug concentration efficient for inducing abnormal touch response” value [5] was 5000 µM and the “Hill coeff of drug-mediated inhibition” value [8] was 0.9 ± 0.0. For the same compound, the IC50 ([8]; read-out: IC50 of inhibition of glycine current) was 6.4 ± 0.3 µM and the “Response 1st screening” value [6, 13] was “failed to identify it”.
In the case of `Cc1c(-c2ccccc2)oc2c(C(=O)OCCN3CCCCC3)cccc2c1=O` [Flavoxate hydrochloride], the “Response 2nd screening” value [1, 12] is reported as “Normal” and the “Response 1st screening” value [6, 13] is reported as “Weird contraction”.
With `NCC(=O)O` [glycine, Glycine] the “Hill coefficient of glycine-dependent gating” value (shortened to “Hill coefficient”) [2] was 3.2 ± 0.2, the “Hill coefficient” value ([3]; mean ± SEM, 10 oocytes) was 2.7 ± 0.1 and the EC50 ([3]; mean ± SEM, 10 oocytes, read-out: EC50 of glycine-dependent gating) was 112 ± 10 µM. For the same compound, the “Hill coefficient” value [4] was 2.9 ± 0.1, the “Hill coefficient” value [8] was 2.5 ± 0.2 and the EC50 ([8]; read-out: EC50 of glycine-dependent gating) was 163 µM.
